In patent US7947726B2, “Non-steroidal ligands for the glucocorticoid receptor, and compositions thereof” (The Regents of the University of California, priority 2002, dated 2011):
Where two headings read alike, the source gives them in different places.

What was measured:
[1] = target: T1, glucocorticoid receptor (GR) (Homo sapiens, UniProt P04150); experiment: Glucocorticoid Receptor Competitor Assay Kit (Panvera) ligand binding; conditions: Table 3; relative binding affinity, dexamethasone = 100
T1 construct: purchased Panvera Corp, Madison, Wis
T1 sequence (P04150 1-777): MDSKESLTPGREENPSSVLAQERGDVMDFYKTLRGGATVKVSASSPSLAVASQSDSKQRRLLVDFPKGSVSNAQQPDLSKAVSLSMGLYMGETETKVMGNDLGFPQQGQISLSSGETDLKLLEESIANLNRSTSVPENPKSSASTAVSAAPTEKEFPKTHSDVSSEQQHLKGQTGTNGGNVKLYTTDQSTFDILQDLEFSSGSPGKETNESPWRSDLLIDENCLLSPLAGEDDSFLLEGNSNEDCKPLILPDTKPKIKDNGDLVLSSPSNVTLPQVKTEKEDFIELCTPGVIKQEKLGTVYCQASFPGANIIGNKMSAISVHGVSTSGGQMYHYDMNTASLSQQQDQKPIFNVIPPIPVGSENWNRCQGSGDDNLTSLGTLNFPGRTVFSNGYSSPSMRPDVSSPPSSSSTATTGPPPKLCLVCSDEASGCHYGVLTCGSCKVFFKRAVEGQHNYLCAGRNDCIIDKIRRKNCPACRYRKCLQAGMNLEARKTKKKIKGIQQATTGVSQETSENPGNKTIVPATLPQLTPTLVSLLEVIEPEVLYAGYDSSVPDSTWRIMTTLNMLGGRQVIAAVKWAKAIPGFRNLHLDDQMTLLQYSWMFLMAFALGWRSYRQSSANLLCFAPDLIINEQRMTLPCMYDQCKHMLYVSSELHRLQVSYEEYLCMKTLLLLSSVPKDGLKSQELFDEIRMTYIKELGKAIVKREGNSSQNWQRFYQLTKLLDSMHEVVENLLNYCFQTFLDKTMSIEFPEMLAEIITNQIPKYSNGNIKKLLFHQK
Excerpt: The Glucocorticoid Receptor Competitor Assay Kit (Panvera Corp, Madison, Wis.) was used for ligand binding studies. The recommended room temperature protocol was followed for all assayed ligands.

[2] = target: T2, GR (Homo sapiens, UniProt P04150); experiment: GRE (TAT3-Luc) activation luciferase assay in CV-1 cells transfected with GR; type: cell-based; conditions: Table 4; for EC50: read-out: GR pot (EC50)
T2 construct: expressed in transfected cells; host or cells: CV-1 cells, transient transfection (plasmid a gift of Keith Yamamoto, UCSF)
T2 sequence (P04150 1-777): T1 sequence (P04150 1-777)
Protocol: Cells were plated into tissue culture treated, 96 well flat bottom plates (25,000 cells/well), and incubated for 12 h at 37° C. Cells were then transfected using the Lipofectamine PLUS transfection reagent (Gibco BRL). DNA-lipid complexes of 5 ng GR, 50 ng TAT3-Luc, 7.5 ng β-galactosidase, 1 μL-well PLUS reagent and 0.67 μL-well lipofectamine in 50 μL/well serum free media were added to cells and incubated for 4 h at 37° C. Complexes were removed and hormones diluted in 5% charcoal-stripped FBS were added to the cells, which were then incubated for 24 hours at 37° C. Media was removed and the cells were washed with 100 μL Ca^+2, Mg^+2 free phosphate buffered saline (PBS). Lysis was achieved by adding 50 μL of Passive Lysis Buffer (Promega Corp, Madison, Wis.) and shaking the plate for 15 min. 15 μL of this lysate was then used to assay β-galactosidase activity (β-galactosidase enzyme assay system, Promega Corp., recommended procedures followed). The Luciferase Assay System (Promega Corp.) was used to assay luciferase activity. 100 μL of luciferase assay reagent was added rapidly to the plate and luminescence was measured for 10 ms/well on an Analyst AD Detection System (LJL Biosystems, Sunnyvale, Calif.).

[3] = target: T3, MR (Homo sapiens, UniProt P08235); experiment: MR activation (max fold activation); type: cell-based; conditions: Table 4
T3 sequence (P08235 1-984): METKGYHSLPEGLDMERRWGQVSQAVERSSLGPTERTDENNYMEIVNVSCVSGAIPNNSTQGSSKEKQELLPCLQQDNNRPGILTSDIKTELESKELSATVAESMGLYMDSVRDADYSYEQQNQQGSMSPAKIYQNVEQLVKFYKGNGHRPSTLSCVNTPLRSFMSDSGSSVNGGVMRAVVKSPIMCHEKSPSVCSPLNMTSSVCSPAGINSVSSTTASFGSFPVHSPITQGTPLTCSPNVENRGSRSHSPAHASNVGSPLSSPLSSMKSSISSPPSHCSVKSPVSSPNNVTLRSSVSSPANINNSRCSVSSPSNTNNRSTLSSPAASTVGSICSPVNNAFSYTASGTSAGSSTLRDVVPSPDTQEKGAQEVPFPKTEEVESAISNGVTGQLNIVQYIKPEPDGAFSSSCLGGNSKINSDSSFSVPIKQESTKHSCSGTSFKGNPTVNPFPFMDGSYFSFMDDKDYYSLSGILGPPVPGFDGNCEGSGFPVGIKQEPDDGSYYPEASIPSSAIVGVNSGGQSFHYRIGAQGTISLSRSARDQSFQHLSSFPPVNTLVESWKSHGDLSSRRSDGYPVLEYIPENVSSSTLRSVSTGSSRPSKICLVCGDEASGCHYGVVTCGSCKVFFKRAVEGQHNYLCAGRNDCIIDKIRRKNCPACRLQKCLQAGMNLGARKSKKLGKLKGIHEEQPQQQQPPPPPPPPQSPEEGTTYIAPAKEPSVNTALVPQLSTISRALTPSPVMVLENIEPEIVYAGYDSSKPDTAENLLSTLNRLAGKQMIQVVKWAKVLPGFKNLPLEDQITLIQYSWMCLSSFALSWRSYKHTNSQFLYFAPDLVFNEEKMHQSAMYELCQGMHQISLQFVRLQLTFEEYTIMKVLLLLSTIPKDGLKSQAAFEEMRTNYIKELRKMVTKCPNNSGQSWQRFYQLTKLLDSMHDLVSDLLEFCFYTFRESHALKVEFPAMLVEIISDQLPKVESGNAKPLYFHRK

[4] = target: T4, GR (Rattus norvegicus, UniProt P06536); experiment: AP-1 repression luciferase assay in U2OS cells stably transfected with rat GR; type: cell-based; conditions: Table 5, TPA-stimulated U2OS cells; for EC50: read-out: Repression AP-1 pot (EC50); for Emax: 12 h, read-out: Repression AP-1 % max repression
T4 construct: expressed in transfected cells; gift of Keith Yamamoto
T4 sequence (P06536 1-795): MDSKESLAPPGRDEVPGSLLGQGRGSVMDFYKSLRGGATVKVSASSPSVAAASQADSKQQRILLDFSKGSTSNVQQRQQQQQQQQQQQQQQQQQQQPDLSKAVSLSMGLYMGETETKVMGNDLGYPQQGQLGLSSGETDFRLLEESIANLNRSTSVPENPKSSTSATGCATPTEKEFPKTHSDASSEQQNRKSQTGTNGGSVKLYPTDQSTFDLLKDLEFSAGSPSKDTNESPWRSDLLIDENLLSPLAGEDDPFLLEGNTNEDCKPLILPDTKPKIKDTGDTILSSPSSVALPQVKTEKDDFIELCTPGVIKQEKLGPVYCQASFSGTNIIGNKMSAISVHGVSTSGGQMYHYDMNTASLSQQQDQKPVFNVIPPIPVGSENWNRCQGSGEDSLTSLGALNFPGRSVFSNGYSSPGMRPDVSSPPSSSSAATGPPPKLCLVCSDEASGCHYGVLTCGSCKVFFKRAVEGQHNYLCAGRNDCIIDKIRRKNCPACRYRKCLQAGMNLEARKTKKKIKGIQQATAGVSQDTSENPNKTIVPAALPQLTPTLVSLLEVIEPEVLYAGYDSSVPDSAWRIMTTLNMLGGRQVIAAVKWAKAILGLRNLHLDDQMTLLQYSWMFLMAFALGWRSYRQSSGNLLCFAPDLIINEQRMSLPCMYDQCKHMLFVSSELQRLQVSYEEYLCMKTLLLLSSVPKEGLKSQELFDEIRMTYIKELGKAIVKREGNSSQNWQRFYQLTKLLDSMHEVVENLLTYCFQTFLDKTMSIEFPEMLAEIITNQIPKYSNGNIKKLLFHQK
Protocol: For API repression assays, U2OS cells stably transfected with rat GR were grown in similar media as for CV-1 cells with the exception of the FBS concentration, which was 10% and the only antibiotic was […]. Cells were plated and transfected in a similar fashion, except for plasmids, which in this case were 50 ng/well AP1-Luc and 10 ng/well β-galactosidase. Post-transfection, cells were incubated with either 50 ng/mL TPA (Phorbol 12-myristate 13-acetate), or 50 ng/mL TPA and various hormone dilutions in 10% charcoal treated FBS media. The cells were incubated for 12 h, and the lysis, β-galactosidase assay, and luciferase assay were performed as previously described.

[5] = system: Coll A; experiment: Coll A repression; type: cell-based; conditions: for Emax: read-out: Repression Coll A % max repression; for EC50: read-out: Repression Coll A pot (EC50)
[6] = system: NF-κB; experiment: NF-κB repression luciferase assay in A549 cells; type: cell-based, human; conditions: Table 5, TNF-α-stimulated A549 cells; for EC50: Homo sapiens, read-out: Repression NF-KB pot (EC50)
Excerpt: Plasmids for GR (human, pSG5 backbone), AP1-Luc (synthetic AP1 response element upstream of a firefly luciferase gene), TAT3-Luc (three copies of the tyrosine aminotransferase glucocorticoid response element upstream of a firefly luciferase gene), β-galactosidase (used as a transfection control), as well as two stable transfected cells lines: an A549 (human, lung carcinoma) cell line stably transfected with a κB response element upstream of a firefly luciferase gene, (R. M. Nissen et al., Genes Dev., 14(18):2314-29, (2000)) and a U2OS (human, osteosarcoma) stably transfected with rat GR (I. Rogatsky, et al., Mol. Cell. Biol., 1997, 17, 3181-3193) were a gift of Professor Keith Yamamoto (Department of Biochemistry, University of California, San Francisco).
For NF-κB repression assays, A549 cells stably transfected with a luciferase reporter were grown under the same conditions as CV-1 cells. 50,000 cells/well were plated into 96 well plates and incubated for 12 h at 37° C. Either TNF-α alone or mixed with various hormone dilutions in media were then added to the cells, which were then incubated for 8 hours. Procedures for lysis and luciferase assay were performed as previously described. Protein content was used as a control in this case and the recommended procedures using the BCA Protein Assay Kit (Roche) were followed.

Row | Compound | GR binding RBA (dex = 100) [1] | GRE activation max fold activation [2] | EC50 [2] [µM] | MR max fold activation [3] | EC50 [4] [µM] | Emax ([4]; U2OS) [%] | EC50 ([5]; Table 5) [µM] | EC50 [6] [µM] | Emax [4] [%] | EC50 ([5]; Table 2) [µM] | Emax ([5]; Table 5) [%] | Repression NF-KB % max repression [6] [%] | Emax ([5]; Table 2) [%] | Repression Coll A % max repression ([5]; Table 5) [%]
1 | C[C@]12CCC(=O)C=C1CC[C@@H]1[C@@H]2[C@@H](O)C[C@@]2(C)[C@H]1CC[C@]2(O)C(=O)CO [Cortisol, cortisol] | – | – | – | – | – | – | 0.0021 | 0.0084 | – | – | – | 83 | – | –
2 | C[C@@H]1C[C@H]2[C@@H]3CCC4=CC(=O)C=C[C@]4(C)[C@@]3(F)[C@@H](O)C[C@]2(C)[C@@]1(O)C(=O)CO [Dexamethasone, dexamethasone, reference compound] | – | – | – | – | – | – | – | 0.0015 | 89 | 0.00036 | – | 87 | 84 | 84

More lines, main results first:

Row | GR binding RBA (dex = 100) [1] | GRE activation max fold activation [2] | EC50 [2] [µM] | MR max fold activation [3] | EC50 [4] [µM] | Emax ([4]; U2OS) [%] | EC50 ([5]; Table 5) [µM] | EC50 [6] [µM] | Emax [4] [%] | EC50 ([5]; Table 2) [µM] | Compound | Emax ([5]; Table 5) [%] | Repression NF-KB % max repression [6] [%] | Emax ([5]; Table 2) [%] | Repression Coll A % max repression ([5]; Table 5) [%]
3 | 93 | 21 | 0.313 | 2.0 ± 0.7 | 0.0053 | 74 | – | – | – | – | CC12Cc3cnn(-c4ccc(F)cc4)c3C=C1CCCC2C(O)c1csc2ccccc12 (centres unmarked) [Compound 221, 3a,7a-(Dihydro-benzo[b]thiophen-3-yl)-[1-(4-fluoro-phenyl)-4a-methyl-4,4a,5,6,7,8-hexahydro-1H-benzo[f]indazol-5-yl]-methanol] | – | – | – | –
4 | 52 | 55 ± 2 | 0.11 ± 0.007 | 3.1 ± 1.0 | 0.0166 | 77 | – | – | – | – | CC12Cc3cnn(-c4ccc(F)cc4)c3C=C1CCCC2C(O)c1cccc(O)c1 (centres unmarked) [Compound 229, 3-{[1-(4-Fluoro-phenyl)-4a-methyl-4,4a,5,6,7,8-hexahydro-1H-benzo[f]indazol-5-yl]-hydroxy-methyl}-phenol] | – | – | – | –
5 | 36 | 69 ± 25 | 0.33 ± 0.092 | 2.9 ± 0.5 | 0.0128 | 68 | 0.028 | – | – | – | CC12Cc3cnn(-c4ccc(F)cc4)c3C=C1CCCC2C(O)c1ccc(O)cc1 (centres unmarked) [Compound 231, 4-{[1-(4-Fluoro-phenyl)-4a-methyl-4,4a,5,6,7,8-hexahydro-1H-benzo[f]indazol-5-yl]-hydroxy-methyl}-phenol] | 70 | – | – | –
